Test system: adulte ovarektomierte Ratten
Assay: Uterus wet weight after single oral application in adult ovariectomized rats (oral estrogenic effect, dose-response analysis)
Format: in vivo
Conditions: suspended in Myrj, 3-100 µg/T (dose refers to steroid part), uterus wet weight on day 4, Abbildungen 1 und 2
From the text: Als Vergleiche dienten Ethinylestradiol (EE) und 14α,15α-Methylen-estra-1,3,5(10)-trien-3,17β-diol (Code: J824) Die Ermittlung der Uterusfeuchtmassen nach einmaliger oraler Substanzapplikation sowie die Dosis-Wirkungsanalysen der Substanzen wurde zur Bemessung einer Estrogenwirkung herangezogen.
Sowohl Uterus als auch Vagina zeigen bei ovarektomierten Ratten eine von der Estrogendosis abhängige Gewichtszunahme. Diese ist auf eine Proliferation der Schleimhäute, erhöhte Proteinsynthese, aber auch auf eine Wassereinlagerung zurückzuführen. Für die der Erfindung zu Grunde liegenden Untersuchungen wurden adulte ovarektomierte Ratten eingesetzt. In einer kontrollierten Studie wurden Ester des 14α,15α-Methylen-estradiols auf estrogene Wirkung bei oraler Applikation gegen Ethinylestradiol(EE) und 14α,15α-Methylen-estradiol (J 824) geprüft. Die angegebenen Dosierungen beziehen sich auf den Steroidkern der Moleküle. Die Testsubstanzen wurden einmalig oral appliziert. Als Parameter einer Estrogenwirkung wurden am 4. Tag des Versuches die Uterusgewichte ermittelt (Feuchtgewichte).
Weibliche Ratten [Stamm: BOR:WISW (SPF/Cpb)], Körpermasse zu Versuchsbeginn 200 - 240 g wurden ovarektomiert und 10 Tage nach diesem Eingriff randomisiert den Versuchsgruppen zugeordnet. Dann erfolgte die einmalige orale Applikation (Tag 1) der Prüfsubstanzen. Am 4. […]

SMILES: C[C@]12CC[C@@H]3c4ccc(O)cc4CC[C@H]3[C@@]13C[C@H]3C[C@@H]2O [J824, 14α,15α-Methylen-estra-1,3,5(10)-trien-3,17β-diol]
- orale Estrogenwirkung (Uterusfeuchtmassen): bessere estrogene Wirkung des J824 gegenüber EE

Reference: patent publication EP0707593B1, “ORALLY ADMINISTERABLE ESTERS OF 14 ALPHA,15 ALPHA-METHYLENE-OESTRADIOL WITH AN OESTROGENIC ACTION” (Jenapharm GmbH & Co. KG, priority 1993, dated 1995)
